# From patent US8012945B2, “Phage antibodies to radiation-inducible neoantigens” (Vanderbilt University, priority 2001, dated 2011)
# How the values were obtained:
# [1] = molecular target: T1, GP-IIb/IIIa receptors on activated platelets (Homo sapiens, UniProt P05106+P08514); assay: Clinical trial of x-ray-guided delivery, gamma camera/SPECT imaging of ^99mTc-labeled biapcitide; format: in vivo
# T1 construct: endogenous in cells; host or cells: platelets in irradiated tumours of patients (in vivo imaging)
# T1 sequence (P08514 32-887 limits assumed): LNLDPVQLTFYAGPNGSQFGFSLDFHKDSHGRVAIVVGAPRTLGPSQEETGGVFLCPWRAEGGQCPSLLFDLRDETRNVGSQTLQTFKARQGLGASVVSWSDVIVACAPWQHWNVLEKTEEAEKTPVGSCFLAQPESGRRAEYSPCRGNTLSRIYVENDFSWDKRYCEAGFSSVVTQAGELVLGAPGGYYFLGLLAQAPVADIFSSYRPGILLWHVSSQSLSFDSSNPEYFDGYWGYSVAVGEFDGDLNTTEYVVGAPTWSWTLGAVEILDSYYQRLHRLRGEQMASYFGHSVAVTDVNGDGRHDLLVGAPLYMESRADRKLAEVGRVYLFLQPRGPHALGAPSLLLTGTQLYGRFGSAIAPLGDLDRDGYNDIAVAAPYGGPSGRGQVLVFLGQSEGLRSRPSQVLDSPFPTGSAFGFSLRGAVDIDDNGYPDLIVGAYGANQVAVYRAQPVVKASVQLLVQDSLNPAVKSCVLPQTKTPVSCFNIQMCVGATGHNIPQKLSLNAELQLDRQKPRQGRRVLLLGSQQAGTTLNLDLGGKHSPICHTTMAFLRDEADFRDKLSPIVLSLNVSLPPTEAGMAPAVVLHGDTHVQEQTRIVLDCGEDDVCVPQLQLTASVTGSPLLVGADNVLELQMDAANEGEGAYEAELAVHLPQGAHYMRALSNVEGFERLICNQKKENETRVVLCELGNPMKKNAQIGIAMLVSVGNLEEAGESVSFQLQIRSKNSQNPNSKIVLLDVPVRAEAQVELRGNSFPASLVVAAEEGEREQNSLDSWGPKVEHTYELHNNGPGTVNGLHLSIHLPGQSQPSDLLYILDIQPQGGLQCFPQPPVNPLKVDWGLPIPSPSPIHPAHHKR
# T1 sequence (P08514 891-1039 partner limits assumed): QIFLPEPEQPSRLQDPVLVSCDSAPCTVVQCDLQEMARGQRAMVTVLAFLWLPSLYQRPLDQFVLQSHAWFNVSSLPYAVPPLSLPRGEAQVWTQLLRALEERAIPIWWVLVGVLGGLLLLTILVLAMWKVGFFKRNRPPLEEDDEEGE
# T1 sequence (P05106 27-788): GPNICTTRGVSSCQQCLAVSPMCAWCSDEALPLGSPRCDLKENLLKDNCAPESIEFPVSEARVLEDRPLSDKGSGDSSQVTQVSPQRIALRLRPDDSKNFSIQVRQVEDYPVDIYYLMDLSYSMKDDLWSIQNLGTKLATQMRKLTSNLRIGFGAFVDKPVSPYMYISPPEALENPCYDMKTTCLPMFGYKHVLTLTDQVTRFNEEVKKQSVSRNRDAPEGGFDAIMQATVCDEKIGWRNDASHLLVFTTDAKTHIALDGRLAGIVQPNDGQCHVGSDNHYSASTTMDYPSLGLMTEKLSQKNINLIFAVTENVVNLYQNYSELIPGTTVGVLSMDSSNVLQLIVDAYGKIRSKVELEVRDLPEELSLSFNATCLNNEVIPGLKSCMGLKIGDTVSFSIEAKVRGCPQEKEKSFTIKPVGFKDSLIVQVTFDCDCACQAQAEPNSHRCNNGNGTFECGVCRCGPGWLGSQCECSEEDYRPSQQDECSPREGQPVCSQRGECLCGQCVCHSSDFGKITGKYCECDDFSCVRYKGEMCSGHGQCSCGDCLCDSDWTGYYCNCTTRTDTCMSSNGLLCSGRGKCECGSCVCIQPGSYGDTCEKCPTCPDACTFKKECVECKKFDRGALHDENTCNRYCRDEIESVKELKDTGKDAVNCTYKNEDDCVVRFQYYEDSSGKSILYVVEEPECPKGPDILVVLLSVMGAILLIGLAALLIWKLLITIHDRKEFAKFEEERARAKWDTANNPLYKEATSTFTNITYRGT
# Protocol: Biapcitide (ACUTECT® available from Diatide, Inc., Londonderry, N.H., United States of America) is a synthetic peptide that binds to GP-IIb/IIIa receptors on activated platelets (Hawiger et al., 1989; Hawiger & Timmons, 1992). Biapcitide was labeled with ^99mTc in accordance with a protocol provided by Diatide Inc.
# Reconstituted ^99mTc-labeled biapcitide was administered to patients at a dose of 100 mcg of biapcitide radiolabeled with 10 millicuries (mCi) of ^99mTc. […] Patients were then treated with 10 Gy or more. Patients underwent gamma camera imaging prior to irradiation and 24 hours following irradiation. Following planar image acquisition, those patients showing uptake in irradiated tumors underwent tomographic imaging using SPECT and repeat imaging at 24 hours. Patients showing no uptake on planer images during this 24-hour time frame had no further imaging.
# Patients were treated with X-irradiation ranging from 4 to 18 MV photon using external beam linear accelerator at Vanderbilt University. Appropriate blocks, wedges and bolus to deliver adequate dose to the planned target volume was utilized. The site of irradiation, treatment intent and normal tissue considerations determined the radiation dosage and volume. When stereotactic radiosurgery was used, the dose was prescribed to the tumor periphery.
# Image Analysis. Image acquisition consisted of both planar and single photon emission computed tomography (SPECT) studies. […] The spatial distribution of […] within the planar image was measured using region of interest (ROI) analysis. […] The rationale for using ROIs with different dimensions is to be able to quantify image counts while at the same time isolating any possible influence of ROI size on the results. […] Background counts was determined based on ROI analysis of a separate planar acquisition performed in the absence of a radioactive source.
# Three-dimensional nuclear medicine SPECT examinations were performed using the same dual-head gamma camera system. […] SPECT tumor-to-background ratios were computed using quantitative ROI techniques identical to the planar studies.
# B16F0 tumors = assay: Biotinylated dodecapeptide binding in B16F0 hind limb tumors, Avidin-FITC staining; format: in vivo, mice
# Description: Observations. The peptide sequence within fibrinogen that binds to the activated GPIIb/IIIa receptor is the dodecapeptide […] (SEQ ID NO: 16). To determine whether […] (SEQ ID NO: 16) binds in irradiated tumors, applicant utilized the peptide […] (SEQ ID NO: 16) linked to biotin by a serine-glycine linker ([…]-SGSGSK-biotin; SEQ ID NO: 30). This peptide was synthesized in the Vanderbilt University Peptide Core Lab and biotinylated at the carboxyl terminus. The resulting […]-SGSGSK-biotin (SEQ ID NO: 30) was administered by tail vein injection into tumor bearing mice. B16F0 tumors in the hind limb were treated with sham irradiation (control), 4 Gy irradiation followed by […]-SGSGSK-biotin (SEQ ID NO: 30) injection, or […]-SGSGSK-biotin (SEQ ID NO: 30) followed by tumor irradiation (4 Gy). Tumors were frozen at 4 hours and sectioned for fluorescence staining. Avidin-FITC was incubated with tumor sections and imaged by UV microscopy.
# α2bβ3 receptor = molecular target: T2, α2bβ3 receptor (Mus musculus, UniProt O54890+Q9QUM0); assay: Recombinant phage binding in irradiated tumors after blocking antibody, plaque formation; format: in vivo; settings: phage quantified by plaque formation
# T2 construct: from tissue; host or cells: irradiated tumours (blood vessels and platelets) in living mice
# T2 sequence (Q9QUM0 32-1033): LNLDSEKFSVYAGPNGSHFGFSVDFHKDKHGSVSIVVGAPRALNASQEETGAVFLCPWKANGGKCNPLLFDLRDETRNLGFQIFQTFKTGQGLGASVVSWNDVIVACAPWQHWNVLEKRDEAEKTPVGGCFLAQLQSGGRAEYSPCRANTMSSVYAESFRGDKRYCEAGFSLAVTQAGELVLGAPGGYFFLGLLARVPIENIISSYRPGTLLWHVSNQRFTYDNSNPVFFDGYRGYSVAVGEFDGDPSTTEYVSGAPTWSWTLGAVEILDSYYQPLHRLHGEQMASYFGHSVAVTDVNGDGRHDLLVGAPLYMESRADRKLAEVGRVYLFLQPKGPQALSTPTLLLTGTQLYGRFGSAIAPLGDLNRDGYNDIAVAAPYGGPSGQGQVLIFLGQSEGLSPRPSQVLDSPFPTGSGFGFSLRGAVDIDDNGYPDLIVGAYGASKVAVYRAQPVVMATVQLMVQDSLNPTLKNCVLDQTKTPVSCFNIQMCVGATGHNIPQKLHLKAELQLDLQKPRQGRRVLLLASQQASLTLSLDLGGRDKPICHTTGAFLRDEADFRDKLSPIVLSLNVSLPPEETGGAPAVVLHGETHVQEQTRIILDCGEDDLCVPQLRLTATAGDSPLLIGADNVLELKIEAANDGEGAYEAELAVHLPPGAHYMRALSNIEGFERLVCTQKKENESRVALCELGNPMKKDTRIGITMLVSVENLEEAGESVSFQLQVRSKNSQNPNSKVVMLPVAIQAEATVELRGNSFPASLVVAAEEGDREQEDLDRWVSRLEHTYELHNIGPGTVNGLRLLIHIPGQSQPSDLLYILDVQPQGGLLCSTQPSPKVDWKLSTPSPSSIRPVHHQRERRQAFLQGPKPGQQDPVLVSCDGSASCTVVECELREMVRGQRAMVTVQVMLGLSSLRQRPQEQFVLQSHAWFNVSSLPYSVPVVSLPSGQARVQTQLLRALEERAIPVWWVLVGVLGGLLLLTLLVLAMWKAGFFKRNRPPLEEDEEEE
# T2 sequence (O54890 26-787): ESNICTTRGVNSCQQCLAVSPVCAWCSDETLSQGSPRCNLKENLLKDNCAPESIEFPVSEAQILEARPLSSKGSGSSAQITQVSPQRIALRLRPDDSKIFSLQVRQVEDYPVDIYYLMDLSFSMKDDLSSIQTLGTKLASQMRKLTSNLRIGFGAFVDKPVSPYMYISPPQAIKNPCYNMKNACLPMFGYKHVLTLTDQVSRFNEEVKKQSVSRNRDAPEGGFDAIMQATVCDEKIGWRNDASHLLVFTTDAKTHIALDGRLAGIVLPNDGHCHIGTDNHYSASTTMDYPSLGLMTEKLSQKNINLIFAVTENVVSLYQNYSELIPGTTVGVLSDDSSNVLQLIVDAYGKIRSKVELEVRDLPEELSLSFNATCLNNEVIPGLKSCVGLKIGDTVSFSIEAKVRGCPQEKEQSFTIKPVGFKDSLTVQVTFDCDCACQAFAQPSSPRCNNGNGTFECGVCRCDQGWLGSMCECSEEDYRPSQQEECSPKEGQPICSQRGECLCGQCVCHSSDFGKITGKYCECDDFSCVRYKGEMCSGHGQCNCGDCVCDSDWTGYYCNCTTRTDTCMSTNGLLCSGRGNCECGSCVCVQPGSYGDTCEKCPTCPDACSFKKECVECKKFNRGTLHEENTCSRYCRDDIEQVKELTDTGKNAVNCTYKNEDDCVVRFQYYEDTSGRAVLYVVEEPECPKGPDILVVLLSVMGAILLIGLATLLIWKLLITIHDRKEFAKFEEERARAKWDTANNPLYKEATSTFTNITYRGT
# Protocol: The anti-[…]2b[…]3 monoclonal antibody was administered by tail vein to determine whether this receptor is required for recombinant phage binding in irradiated tumors. Phage encoding […] (SEQ ID NO: 5) on the capsid protein were injected immediately after blocking antibody or control antibody. Phage were recovered from the tumor and controls organs and quantified by plaque formation. Radiation induced a 4-fold increase in phage binding in tumor. […] Thus, the tumor binding activity of targeting peptide […] (SEQ ID NO: 5) is dependent on its interaction with the α2bβ3 receptor.
substance,measurement,setting,value
Biapcitide [^99mTc-labeled biapticide],tumor binding,[1]; administered immediately prior to radiation,4 of 4
same,localization to the tumor,[1]; administered within one hour following radiation,failed to show localization
same,binding in untreated tumor,"[1]; second neoplasms not treated with radiation, two patients",not observed
"HHLGGAKQAGDV (Artificial peptide ligand number 16) [dodecapeptide, segment of the γ subunit of fibrinogen]",efficiency of schedule of administration,B16F0 tumors; administration prior to irradiation compared to radiation before administration,administration prior to irradiation is a more efficient schedule
HHLGGAKQAGDV-SGSGSK-biotin,"Avidin-FITC staining of tumor sections, irradiated tumors","B16F0 tumors; 4 Gy, tumors frozen at 4 hours",Avidin-FITC stained blood vessels were observed
same,"Avidin-FITC staining of tumor sections, untreated control",B16F0 tumors; sham irradiation,not in untreated control
SLRGDGSSV (phage-displayed; Artificial peptide ligand number 5),radiation-induced increase in phage binding in tumor,α2bβ3 receptor,4 fold
